Assays:
[1] = test system: MLN4924 resistant HCT-116 cell clones; assay: Cell viability assay, 96 hours ATPlite, resistant clones; format: cell-based
Procedure: HCT-116 cells and resistant clones were treated with DMSO or various concentrations of FIG. 7A. bortezomib, FIG. 7B. doxorubicin or FIG. 7C. SN-38 for 96 hours and cell viability was assessed with ATPlite assay.
(§1) Cell line cultures were maintained using appropriate cell culture media as recommended by ATCC and as previously reported (Soucy et al., 2009, Milhollen et al., 2010). […] Cell viability assays completed using 96 hours ATPlite assay (PerkinElmer) as previously reported (Soucy et al., 2009).

[2] = biological target: T1, wild type UBA3 (NAE) (Homo sapiens, UniProt Q8TBC4); assay: NAE HTRF assay, IC50 at KM for ATP (20 μM); format: biochemical; details: read-out: NAE WT IC50
T1 construct: His; made in house; host or cells: E. coli Rosetta (DE3), co-expression
T1 sequence (Q8TBC4 whole entry): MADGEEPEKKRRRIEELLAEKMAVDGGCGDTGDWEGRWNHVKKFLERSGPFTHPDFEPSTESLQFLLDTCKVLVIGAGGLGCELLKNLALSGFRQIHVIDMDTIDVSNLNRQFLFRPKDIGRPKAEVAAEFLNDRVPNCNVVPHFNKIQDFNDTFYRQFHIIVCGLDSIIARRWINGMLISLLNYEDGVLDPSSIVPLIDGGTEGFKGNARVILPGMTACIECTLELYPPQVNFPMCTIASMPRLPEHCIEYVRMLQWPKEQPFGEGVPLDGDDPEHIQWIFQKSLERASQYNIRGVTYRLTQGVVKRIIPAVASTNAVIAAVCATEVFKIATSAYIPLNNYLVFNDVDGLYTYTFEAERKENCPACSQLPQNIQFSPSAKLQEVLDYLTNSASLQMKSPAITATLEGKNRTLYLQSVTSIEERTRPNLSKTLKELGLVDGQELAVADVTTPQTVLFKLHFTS
T1 sequence (Q13564 whole entry partner): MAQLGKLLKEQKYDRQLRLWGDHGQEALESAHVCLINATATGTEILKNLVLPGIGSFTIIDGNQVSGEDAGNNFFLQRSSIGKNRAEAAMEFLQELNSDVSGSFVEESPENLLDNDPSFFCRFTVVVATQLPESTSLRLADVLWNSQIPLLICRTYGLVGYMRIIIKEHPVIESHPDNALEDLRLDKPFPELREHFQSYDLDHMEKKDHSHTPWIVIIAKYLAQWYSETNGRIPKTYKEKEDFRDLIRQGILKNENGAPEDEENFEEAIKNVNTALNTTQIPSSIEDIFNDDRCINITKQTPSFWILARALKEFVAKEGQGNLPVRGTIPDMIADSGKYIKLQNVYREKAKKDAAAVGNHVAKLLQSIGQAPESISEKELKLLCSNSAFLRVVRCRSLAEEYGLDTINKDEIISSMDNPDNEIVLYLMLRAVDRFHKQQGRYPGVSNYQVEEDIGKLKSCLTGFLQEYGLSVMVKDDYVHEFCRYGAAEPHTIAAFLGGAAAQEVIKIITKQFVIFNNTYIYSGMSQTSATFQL
T1 sequence (Q15843 1-76 partner limits assumed): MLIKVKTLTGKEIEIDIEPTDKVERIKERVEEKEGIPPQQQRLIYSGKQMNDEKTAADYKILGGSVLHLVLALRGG
Procedure: (§2) The enzyme reversibility assay was run in the FLAG-NEDD8-GST-UBC12 HTRF transthiolation assay described previously (Soucy et al., 2009, Brownell et al., 2010). Final concentrations of each enzyme after dilution were 10 pM WT NAEβ, 12.5 pM A171T NAEβ, 30 pM N209K NAEβ, and 33 pM E204K/G201V NAEβ.
(§3) IC50 measurements were performed in the HTRF assay described in Example 6. Assays for each enzyme were performed at their KM for ATP (20 μM for wild type, 120 μM for the A171T mutant).
(§4) An NAE enzymatic reaction totals 50 μL and contains 50 mM HEPES (pH 7.5), 0.05% BSA, 5 mM MgCl2, 20 μM ATP, 250 μM GSH, 0.01 μM UBC12-GST, 0.075 NEDD8-Flag and 0.28 nM recombinant human NAE enzyme. The enzymatic reaction mixture, with and without compound inhibitor, is incubated at 24° C. for 90 minutes in a 384-well plate before termination with 25 μL of Stop/Detection buffer (0.1M HEPES pH 7.5, 0.05% Tween20, 20 mM EDTA, 410 mM KF, 0.53 nM Europium-Cryptate labeled monoclonal anti-FLAG M2 antibody (CisBio International) and 8.125 μg/mL PHYCOLINK goat anti-GST allophycocyanin (XL-APC) antibody (Prozyme)). After incubation for 3 hours at 24° C., quantification of the FRET is performed on the Analyst™ HT 96.384 (Molecular Devices).

[3] = biological target: T2, UBA3 variant with A171T mutation (NAE) (Homo sapiens, UniProt Q8TBC4, A171T); assay: NAE HTRF assay, IC50 at KM for ATP (120 μM); format: biochemical; details: for IC50: UBA3 A171T mutant, HTRF assay at KM for ATP, 120 μM; for A171T/WT: ratio of IC50 A171T mutant to IC50 wild type
T2 construct: His; made in house; host or cells: E. coli Rosetta (DE3), co-expression
T2 sequence (Q8TBC4 whole entry A171T): as the sequence (Q8TBC4 whole entry) above, with A171T counted along it
T2 sequence (Q13564 whole entry partner): as the sequence (Q13564 whole entry partner) above
T2 sequence (Q15843 1-76 partner limits assumed): as the sequence (Q15843 1-76 partner limits assumed) above
Procedure: as §2, §3, §4

[4] = biological target: T3, A573T UBA6 (Homo sapiens, UniProt A0AVT1, A573T); assay: UBA6 pyrophosphate exchange assay; format: biochemical; details: A573T UBA6 5 nM, 1 mM ATP, 4 μM ubiquitin
T3 construct: His6 (N); made in house; host or cells: Sf9 insect cells (baculovirus, single infection)
T3 sequence (A0AVT1 whole entry A573T): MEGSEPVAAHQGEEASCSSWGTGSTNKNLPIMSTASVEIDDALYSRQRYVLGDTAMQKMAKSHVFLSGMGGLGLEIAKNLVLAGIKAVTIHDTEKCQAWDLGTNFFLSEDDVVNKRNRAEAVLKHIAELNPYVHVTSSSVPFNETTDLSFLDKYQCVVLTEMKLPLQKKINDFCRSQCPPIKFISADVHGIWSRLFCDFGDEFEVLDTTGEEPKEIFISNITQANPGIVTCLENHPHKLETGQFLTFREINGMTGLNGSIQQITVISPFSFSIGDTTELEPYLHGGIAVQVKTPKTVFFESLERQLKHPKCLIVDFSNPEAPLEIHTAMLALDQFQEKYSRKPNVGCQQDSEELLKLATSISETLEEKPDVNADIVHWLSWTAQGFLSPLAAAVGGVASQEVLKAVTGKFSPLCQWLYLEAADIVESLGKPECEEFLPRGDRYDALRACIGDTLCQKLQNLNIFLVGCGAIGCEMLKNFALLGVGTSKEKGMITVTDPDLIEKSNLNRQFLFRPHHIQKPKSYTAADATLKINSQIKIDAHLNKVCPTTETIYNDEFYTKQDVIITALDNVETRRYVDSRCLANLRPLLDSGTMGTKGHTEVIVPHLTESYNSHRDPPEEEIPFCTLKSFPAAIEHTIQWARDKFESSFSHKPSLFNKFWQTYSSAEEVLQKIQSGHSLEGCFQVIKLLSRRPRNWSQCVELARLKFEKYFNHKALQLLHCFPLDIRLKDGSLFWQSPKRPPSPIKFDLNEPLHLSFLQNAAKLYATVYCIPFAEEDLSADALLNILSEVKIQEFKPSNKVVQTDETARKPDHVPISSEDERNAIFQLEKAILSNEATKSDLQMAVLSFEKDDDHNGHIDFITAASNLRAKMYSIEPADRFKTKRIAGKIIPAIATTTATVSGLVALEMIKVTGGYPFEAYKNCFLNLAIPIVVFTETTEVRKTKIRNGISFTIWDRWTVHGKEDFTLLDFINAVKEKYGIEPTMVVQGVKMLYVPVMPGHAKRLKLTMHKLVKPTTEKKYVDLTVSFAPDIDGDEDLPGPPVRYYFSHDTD
Procedure: (§5) ATP and PPi titrations were run under similar condition, except ubiquitin was fixed at 4 μM. […] ATP standard curve.
(§6) Reactions were initiated with addition of 4 μM ubiquitin.

[5] = biological target: T4, wild-type UBA6 (Homo sapiens, UniProt A0AVT1); assay: UBA6 pyrophosphate exchange assay; format: biochemical; details: wt UBA6 5 nM, 1 mM ATP, 4 μM ubiquitin, 60 minutes at 30° C.
T4 construct: His6 (N); made in house; host or cells: Sf9 insect cells (baculovirus, single infection)
T4 sequence (A0AVT1 whole entry): as the sequence (A0AVT1 whole entry A573T) above, with T573A counted along it
Procedure: as §5, §6

[6] = biological target: T5, A573D UBA6 (Homo sapiens, UniProt A0AVT1, A573D); assay: UBA6 pyrophosphate exchange assay; format: biochemical; details: A573D UBA6 5 nM, 1 mM ATP, 4 μM ubiquitin
T5 construct: His6 (N); made in house; host or cells: Sf9 insect cells (baculovirus, single infection)
T5 sequence (A0AVT1 whole entry A573D): as the sequence (A0AVT1 whole entry A573T) above, with T573D counted along it
Procedure: as §5, §6

[7] = test system: A171T THP-1 xenografts; assay: Antitumor study, re-established resistant xenograft in SCID mice; format: in vivo, mouse; details: A171T THP-1 xenograft, 90 mg/kg BID bi-weekly
Procedure: (§7) Female NCr Nude rats (Taconic Farms) aged 6-8 weeks were inoculated with 10×10^6 HCT-116 cells subcutaneously in the right flank. Tumor growth was measured using digital vernier calipers. […] Rats received one dose per day biweekly for 2 weeks (days 1, 4, 8, and 11) of a 21-day therapy cycle. After three cycles of treatment refractory tumors were collected. Female CB-17 SCID mice (Charles River Laboratories) aged 6-8 weeks were inoculated with 2×10^6 THP-1 or OCI-Ly10 cells with Matrigel™ support (1:1, v/v). […] Mice received two doses per day bi-weekly (days 1, 4, 8, 11, 15, 18, 22 . . . ) until tumors reached approximately 500-800 mm^3. Tumors were then collected and one 40-50 mg piece of tumor was subcutaneously implanted using a 13 gauge trocar needle into 6 to 8 naïve animals for further study. In addition tumor DNA was extracted for mutational analysis as described in supplementary information.
The subcutaneous model was utilized to facilitate harvesting tumors for subsequent analysis. […] Three THP-1 xenografts contained a heterozygous mutation in NAEB at A171T, one contained a heterozygous mutation in at N209D and the remaining two were wild type for NAEB and so may be refractory through an alternate mechanism (FIG. 14A and Table 6).

[8] = test system: E204G OCI-Ly10 xenografts; assay: Antitumor study, re-implanted resistant xenograft in SCID mice; format: in vivo, mouse; details: re-implanted E204G OCI-Ly10 tumor, 90 mg/kg BID
Procedure: as §7

[9] = test system: NCI-H460 cells; assay: Cell viability assay, 96 hours ATPlite; format: cell-based; details: Homo sapiens, NCI-H460 parental cells
Procedure: as §1

[10] = test system: HCT-116 cells; assay: Cell viability assay, 96 hours ATPlite; format: cell-based; details: Homo sapiens, HCT-116 parental cells
Procedure: as §1

[11] = test system: Calu-6 cells; assay: Cell viability assay, 96 hours ATPlite; format: cell-based; details: Homo sapiens, Calu-6 parental cells
Procedure: as §1

[12] = test system: NEDD8-cullin levels in HCT-116 WT and A171T xenografts; assay: Pharmacodynamic marker analysis in tumor xenografts; format: in vivo, rat; details: single dose of 150 mg/kg
Excerpt: (§8) The relative levels of NEDD8-cullin and pIxBa were estimated by quantitative immunoblot analysis (Li-cor Odyssey system) using Alexa680-labelled anti-IgG (Molecular Probes) as the secondary antibody. For the analysis of CDT1 and cleaved caspase-3 levels in tumor sections, formalin-fixed, paraffin-embedded tumour sections were stained with the relevant antibodies, amplified with HRP-labelled secondary antibodies and detected with the ChromoMap DAB Kit (Ventana Medical Systems). Slides were counterstained with haematoxylin. Images were captured using an Eclipse E800 microscope (Nikon Instruments) and Retiga EXi colour digital camera (QImaging) and processed using Metamorph software (Molecular Devices). CDT1 and cleaved caspase-3 are expressed as a function of the DAB signal area.
The digests were analyzed on a LC/MS/MS system as previously described (Brownell et al., 2010).

[13] = test system: NEDD8 pathway (NEDD8-cullin, NEDD8-NAEβ, NEDD8-Ubc12, CDT1, NRF2); assay: Western blot pathway analysis of treated cells; format: cell-based
Procedure: Whole cell extracts were prepared and immunoblotting assays performed as previously described (Soucy, 2009) with primary antibodies as follows: CDT1, NRF2, NEDD8, NAEβ, UBC12 and 4924-NEDD8-ADS (MIL22) (Millennium); UBC10 (Boston Biochem); K48 (Millipore); NAE1 (sigma) and tubulin (Santa Cruz). Secondary Alexa-680-labelled antibodies to rabbit/mouse IgG (Molecular Probes) were used as appropriate and blots were imaged using the Li-Cor Odyssey Infared Imaging system.
The reduced effect on NAE inhibition was confirmed by a reduced accumulation of two CRL substrates, Nrf2 and Cdt1.

[14] = test system: THP-1 AML xenografts; assay: Antitumor study, subcutaneous xenografts in CB-17 SCID mice; format: in vivo, mouse; details: THP-1 xenografts, 90 mg/kg BID, biweekly
Procedure: as §7

[15] = test system: OCI-Ly10 DLBCL xenografts; assay: as above; format: in vivo, mouse; details: 90 mg/kg BID bi-weekly
Procedure: as §7

[16] = test system: MLN4924 resistant Calu-6 clone; assay: Cell viability assay, 96 hours ATPlite, resistant clone; format: cell-based; details: Homo sapiens; one Calu-6 resistant clone
Procedure: (§9) FIG. 6A. Calu-6 and FIG. 6B.
as §1

[17] = test system: HCT-116 xenografts (WT); assay: Antitumor study, subcutaneous xenografts in nude rats; format: in vivo
Procedure: as §7

[18] = as above; format: in vivo; details: female, NCr Nude, rat, in vivo, sc; immunocompromised rats, subcutaneously, days 1, 4, 8 and 11 of a 21 day cycle; read-out: maximum tolerated dose
Procedure: as §7

[19] = test system: HCT-116 WT, HCT-116.1 A171T and HCT-116.4 C324Y cells; assay: Drug efflux inhibitor co-incubation, ATPlite viability assay; format: cell-based
Procedure: Treatment of cells with efflux inhibitors. FIG. 8A. […] Co-incubation studies were performed with various inhibitors of drug efflux at their highest non toxic concentration.
Diypridamole (Sigma), MK571 (Tocris), GF918, K0143 (Tocris) and LY5979 were obtained from commercial sources indicated.

[20] = test system: MLN4924 resistant NCI-H460 clones; assay: Cell viability assay, 96 hours ATPlite, resistant clones; format: cell-based; details: Homo sapiens; two NCI-H460 resistant clones
Procedure: as §9, §1

[21] = test system: A171T HCT-116 xenografts; assay: Antitumor study, re-transplanted resistant xenograft in nude rats; format: in vivo, rat; details: A171T HCT-116 xenograft, one cycle of 150 mg/kg (days 1, 4, 8, 11)
Procedure: as §7
The A171T NAEβ mutation was still present in this resistant xenograft model as confirmed by both Sanger and Sequenom methodologies.

[22] = test system: HCT-116 WT, A171T and G201V cells; assay: Cell cycle analysis (propidium iodide, flow cytometry); format: cell-based; details: HCT-116 resistant A171T and G201V clones, 1 μM, 24 hours
Procedure: Cell cycle analysis. FIG. 11A. HCT-116 WT, FIG. 11B. HCT-116.1 A171T and FIG. 11C.
Logarithmically growing cells were incubated with either MLN4924 or DMSO for the times indicated. Collected cells were fixed in 70% ethanol and stored overnight at 4° C. Fixed cells were centrifuged to remove ethanol, and the pellets were resuspended in propidium iodide and RNaseA in PBS for 1 h on ice protected from light. Cell-cycle distributions were determined using flow cytometry (FACS Calibur, Becton Dickinson) and analysed using Winlist software (Verity).

[23] = test system: NEDD8-cullin levels in A171T THP-1 xenografts; assay: Pharmacodynamic marker analysis in tumor xenografts; format: in vivo, mouse; details: single dose 90 mg/kg
Excerpt: as §8

**Q.** Which “sensitivity of MLN4924 resistant clones to other chemotherapies” value ([1]; HCT-116 resistant clones, 96 hours ATPlite) does the source give for `CCc1c2c(nc3ccc(O)cc13)-c1cc3c(c(=O)n1C2)COC(=O)[C@]3(O)CC` [SN-38] here?
**A.** Its value is “remained sensitive”.

**Q.** Which results are given for `CNc1ncnc2c1ccn2C1CC(O)C(COS(N)(=O)=O)C1` (centres unmarked) [Compound I-40]?
**A.** IC50 [2]: 72 nM; IC50 [3]: 630 nM; A171T/WT [3]: 9

**Q.** Which results are given for `NS(=O)(=O)OCC1OC(n2cnc3c(NCc4ccccc4)ncnc32)C(O)C1O` (centres unmarked) [Compound I-6]?
**A.** IC50 [2]: 0.73 nM; IC50 [3]: 84 nM; A171T/WT [3]: 115

**Q.** Which results are given for `NS(=O)(=O)OC[C@@H]1C[C@@H](n2ccc3c(N[C@H]4CCc5ccccc54)ncnc32)C[C@@H]1O` [MLN4924, ((1S,2S,4R)-4-{4-[(1S)-2,3-dihydro-1H-inden-1-ylamino]-7H-pyrrolo[2,3-d]pyrimidin-7-yl}-2-hydroxycyclopentyl)methyl sulphamate]?
**A.** IC50 [4]: > 100000 nM; IC50 [5]: 6200 ± 800 nM; IC50 [6]: > 100000 nM; antitumor effect [7]: resistant; antitumor effect [8]: resistant; EC50 [9]: 1070 nM; EC50 [10]: 46 nM; EC50 [11]: 80 nM; time of maximal inhibition of NEDD8-cullin levels post-dose ([12]; A171T HCT-116 resistant model): 8 h; time of maximal inhibition of NEDD8-cullin levels post dose ([12]; WT HCT-116 xenografts): 1 h; inhibition of NEDD8 conjugation to NAEB, UBC12 and the cullin proteins ([13]; HCT-116 A171T and G201V clones compared to WT cells): reduced effect of inhibition; effect on the neddylation pathway and CRL substrate accumulation ([13]; NCI-H460 A171D and Calu-6 N209K clones): reduced potency; antitumor effect [14]: uniform tumor regressions; antitumor effect [15]: tumor regressions; EC50 [16]: > 10000 nM; antitumor effect ([17]; WT HCT-116 xenografts, after first cycle, 150 mg/kg s.c.): tumor regressions; tumor growth inhibition ([17]; wild type HCT-116 xenografts, one cycle of 150 mg/kg (days 1, 4, 8, 11)): 94%; MTD [18]: 150 mg/kg; MLN4924 activity on co-incubation with drug efflux inhibitors ([19]; efflux inhibitors at highest non toxic concentration, 96 hours): unaffected; EC50 [20]: > 10000 nM; EC50 ([1]; Homo sapiens, four HCT-116 resistant clones): > 10000 nM; tumor growth inhibition [21]: 38%; cell cycle distribution [22]: not significantly altered; inhibition of NEDD8-cullin levels [23]: minimal inhibition

**Q.** For `CN(C)C(=O)CCSC(SCCC(=O)O)c1cccc(/C=C/c2ccc3ccc(Cl)cc3n2)c1` (centres unmarked) [MK519], which “sensitization of cells to MLN4924 by Pgp, BCRP and MRP2 inhibitors” value ([19]; co-treatment with MLN4924, 96 hours) is on record?
**A.** Its value is “did not sensitize”.

From US20170107579A1, “E1 ENZYME MUTANTS AND USES THEREOF” (Millennium Pharmaceuticals, Inc., priority 2011, published 2017)
